According to patent publication US20230021483A1, “[…] […] METHOD AND CLASSIFICATION OF PHARMACEUTICAL COMPONENTS BY USING TRANSCRIPTOMES” (National Institutes of Biomedical Innovation, Health and …, priority 2016, published 2023):

Tested on: circulating blood cells
Assay: Hematological cell count of peripheral blood 6 h after adjuvant administration (VetScan HMII)
Format: in vivo, C57BL/6 mice
Protocol: Take about 200 μL of blood from the retro-orbital venous plexus with a non-heparinized capillary tube and place the blood into a 1.5 mL tube comprising 2 μL of 10% EDTA-2K for hematological testing. Thoroughly mix the sample by gentle tapping. Stored at room temperature until hematological testing.
The hematological cell count was found using VetScan HMII (Abaxis). 50 μl of EDTA-2K blood sample was diluted by adding 250 μl of saline. Measurements are taken with VetScan HMII by following the instruction.
In a preliminary experiment, FCA and ALM were tested at different points up to 72 hours. […] At 6 hours after adjuvant administration, LV, SP, and LN (both sides) were removed to study the gene expression thereof by using Affimetrix Genechip microarray system (Affymetrix). The sampled organs were each placed in a tube containing RNAlater. The tube was maintained at 4° C. overnight, and stored at −80° C. until use. Blood was also collected after 6 hours from adjuvant administration for general hematological testing. About 200 μL of blood was taken from the retro-orbital venous plexus with a non-heparinized capillary tube and placed into a 1.5 mL tube comprising 2 μL of 10% EDTA-2K for hematological testing. The hematological cell count was found using VetScan HMII (Abaxis). 50 μl of EDTA-2K blood sample was diluted by adding 250 μl of saline. Measurements were taken with VetScan HMII by following the instruction.
The effect of adjuvant administration with respect to the changes in several hematological parameters was investigated. The following parameters were studied: white blood cells (WBC), lymphocytes (LYM), monocytes (MON), granulocytes (GRA), relative (%) content of lymphocytes (LY %), relative (%) content of monocytes (MO %), relative (%) content of granulocytes (GR %), red blood cells (RBC), hemoglobins (Hb, HGB), hematocrits (HCT), mean corpuscular volume (MCV), mean corpuscular hemoglobins (MCH), mean corpuscular hemoglobin concentration (MCHC), red blood cell distribution width (RDW), platelets (PLT), platelet concentration (PCT), mean platelet volume (MPV), and platelet distribution width (PDW).

[1] = peripheral blood 6 h after administration

`CCOCc1nc2c(N)nc3ccccc3c2n1CC(C)(C)O` [R848, 4-amino-2-(ethoxymethyl)-a,a-dimethyl-1H-imidazo[4,5-c]quinoline-1-ethanol] was tested, and the leukopenia [1] was “caused leukopenia” and the lymphopenia [1] was “strongly induced”.
With `CC(O)COC[C@H]1O[C@@H]2O[C@H]3[C@H](O)[C@@H](O)[C@@H](O[C@H]4[C@H](O)[C@@H](O)[C@@H](O[C@H]5[C@H](O)[C@@H](O)[C@@H](O[C@H]6[C@H](O)[C@@H](O)[C@@H](O[C@H]7[C@H](O)[C@@H](O)[C@@H](O[C@H]8[C@H](O)[C@@H](O)[C@@H](O[C@H]1[C@H](O)[C@H]2O)O[C@@H]8COCC(C)O)O[C@@H]7COCC(C)O)O[C@@H]6COCC(C)O)O[C@@H]5COCC(C)O)O[C@@H]4COCC(C)O)O[C@@H]3COCC(C)O` (stereo partly drawn) [bCD, Hydroxypropyl-beta-cyclodextrin] the “monocytosis (monocytes in blood)” value [1] was “clearly induced”.
For `Nc1nc2c(ncn2[C@@H]2O[C@@H]3COP(=O)(O)O[C@H]4[C@@H](O)[C@H](n5cnc6c(N)ncnc65)O[C@@H]4COP(=O)(O)O[C@@H]2[C@@H]3O)c(=O)[nH]1` [cGAMP, Cyclic [G(2′,5′)pA(3′,5′)p]], the “monocytosis (monocytes in blood)” value [1] was “clearly induced”.
`Nc1nc2c(ncn2[C@@H]2O[C@@H]3COP(=O)(O)O[C@H]4[C@@H](O)[C@H](n5cnc6c(=O)[nH]c(N)nc65)O[C@@H]4COP(=O)(O)O[C@H]3[C@H]2O)c(=O)[nH]1` [cdiGMP, Cyclic diguanylate monophosphate] was tested, and the “monocytosis (monocytes in blood)” value [1] was “clearly induced”.
For Monophosphoryl lipid A [MPLA], the “monocytosis (monocytes in blood)” value [1] was “clearly induced”.
For “heptanoyl-γ-D-glutamyl-(L)-meso-diaminopimelyl-(D)-alanine [FK565]”, the “granulocytosis (granulocytes in blood)” value (mouse, in vivo) was “caused granulocytosis”, the leukopenia (mouse, in vivo) was “caused leukopenia” and the lymphopenia (mouse, in vivo) was “strongly induced”.
